According to patent US20230104487A1, “11-(4-CHLOROPHENYL)-4-(2,3-DIHYDRO-1H-INDOLE-1-CARBONYL)-3,11-DIMETHYL-5,10,DIOXATRICYCLO[7.4.0.0,2,6,]TRIDECA-1,3,6,8-TETRAEN-13-ONE AND DERIVATIVES AS DESTABILIZER OF CRY1 FOR THE TREATMENT OF CIRCADIAN RHYTHM ASSOCIATED DISEASES AND DISORDERS” (KOC UNIVERSITESI, priority 2019, published 2023):

What was measured:
[1] = target: T1, CRY2 (Homo sapiens, UniProt Q49AN0); assay: Protein immunoblot, unsynchronized U2-OS cells, CRY2; assay type: cell-based; details: Western blot
T1 construct: To evaluate the effect of FORMULA I on the endogenous protein and mRNA level of clock genes; endogenous in cells; host or cells: U2-OS
T1 sequence (Q49AN0 1-593): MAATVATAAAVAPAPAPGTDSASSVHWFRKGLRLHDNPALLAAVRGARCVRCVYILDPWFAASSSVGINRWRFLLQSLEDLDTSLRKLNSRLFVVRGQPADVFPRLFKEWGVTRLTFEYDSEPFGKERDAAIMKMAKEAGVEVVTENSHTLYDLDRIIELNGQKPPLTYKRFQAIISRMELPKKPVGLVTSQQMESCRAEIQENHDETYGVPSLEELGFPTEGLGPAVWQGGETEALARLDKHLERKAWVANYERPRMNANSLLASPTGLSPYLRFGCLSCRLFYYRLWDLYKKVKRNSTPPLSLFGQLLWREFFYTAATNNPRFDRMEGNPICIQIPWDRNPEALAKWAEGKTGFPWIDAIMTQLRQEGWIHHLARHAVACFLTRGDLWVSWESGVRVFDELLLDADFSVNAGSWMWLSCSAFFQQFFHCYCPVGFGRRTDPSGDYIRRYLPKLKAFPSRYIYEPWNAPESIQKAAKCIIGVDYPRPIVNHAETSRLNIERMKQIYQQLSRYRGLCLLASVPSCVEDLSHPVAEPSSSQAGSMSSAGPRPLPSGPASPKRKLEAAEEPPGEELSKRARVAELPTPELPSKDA
Procedure: Cells were lysed in RIPA buffer (50 mM Tris, 150 mM NaCl, 1% Triton-X, 0.1% SDS) with fresh Protease inhibitor cocktail (PIC). After centrifugation at 13000 rpm for 15 minutes at 4° C., supernatant was used to determine the protein amount using Pierce Protein Assay (Thermo Scientific) according to the manufacturer's instruction. Mice liver samples were homogenized and lysed with Dounce homogenizer and RIPA buffer. After homogenization samples were incubated 10 minutes on ice. After centrifugation 13000 rpm 15 minutes at 4° C. supernatant was used for the whole cell lysate. Subcellular fractionation of liver samples: Liver samples were homogenized with cytosolic lysis buffer (10 mM HEPES pH 7.9, 10 mM KCl, 0.1 mM EDTA, 0.05% NP40, proteasome inhibitor) by pipetting 40 times with a cut tip. Then samples were incubated 10 minutes on ice and centrifuged for 3 minutes at 3000 rpm at 4° C. Supernatant was saved in a new tube, and pellet was processed for the nuclear fraction. Supernatant was centrifuged at 13000 rpm for 3 minutes at 4° C. where new supernatant saved as the cytosolic fraction. […] ECL buffer system (Advansta WesternBright) was used to visualize HRP chemi-luminescence via BioRad ChemiDoc Touch visualizer.

[2] = system: C57BL/6J mice; assay: Circadian behavioral analysis (locomotor activity); assay type: in vivo, mouse; details: constant dark conditions
Procedure: C57BL/6J mice were synchronized 10 days under 12 h:12 h light-dark cycles. After 10 days mice were treated with intraperitoneal dose of 60 mg/kg FORMULA I or vehicle for 14 days and kept under constant darkness (n=12). Locomotor activity of mice were recorded for additional 10-days without any injection. During these days locomotor activity of mice were recorded by ClockLab (Actimetrics) software program. FIG. 7A Representative locomotor activity of mice injected with vehicle (n=5) or FIG. 7B FORMULA I (n=7). FIG. 7C Period and FIG. 7D amplitude of mice under different conditions and injected with vehicle or FORMULA I. Period and amplitude values were calculated by using ClockLab Analysis (Actimetrics) program. Statistical significance was evaluated using one-way analysis of variance (ANOVA), followed by a Tukey's multiple comparisons test using Prism software (GraphPad Software)
Mice were housed in individual cages within a temperature- and humidity-controlled, light-tight enclosure. Each cage contained a running wheel. Food and water were allowed ad libitum. Animals were entrained to a 12:12 h L:D cycle for ≥2 weeks before being released into constant darkness. Then, vehicle (n=5) and FORMULA I (n=6) administered to animals for 5 days and then animals were kept under constant conditions for more than 2 weeks. […]

Compound: Cc1c(C(=O)N2CCc3ccccc32)oc2ccc3c(c12)C(=O)CC(C)(c1ccc(Cl)cc1)O3 (stereo not drawn) [FORMULA I, 11-(4-chlorophenyl)-4-(2,3-dihydro-1H-indole-1-carbonyl)-3,11-dimethyl-5,10,dioxatricyclo[7.4.0.0,2,6,]trideca-1,3,6,8-tetraen-13-one]
- level of CRY2 [1]: CRY2 levels were comparable
- amplitude of locomotor activity [2]: statistically significant impact on the amplitude
- shortening of locomotor period length versus vehicle [2]: approximately 14 min
